Where two headings read alike, the source gives them in different places.
Molecular target: T1, mitochondrial calcium/sodium antiporter (Rattus norvegicus, UniProt Q6AXS0)
T1 sequence (Q6AXS0 1-585): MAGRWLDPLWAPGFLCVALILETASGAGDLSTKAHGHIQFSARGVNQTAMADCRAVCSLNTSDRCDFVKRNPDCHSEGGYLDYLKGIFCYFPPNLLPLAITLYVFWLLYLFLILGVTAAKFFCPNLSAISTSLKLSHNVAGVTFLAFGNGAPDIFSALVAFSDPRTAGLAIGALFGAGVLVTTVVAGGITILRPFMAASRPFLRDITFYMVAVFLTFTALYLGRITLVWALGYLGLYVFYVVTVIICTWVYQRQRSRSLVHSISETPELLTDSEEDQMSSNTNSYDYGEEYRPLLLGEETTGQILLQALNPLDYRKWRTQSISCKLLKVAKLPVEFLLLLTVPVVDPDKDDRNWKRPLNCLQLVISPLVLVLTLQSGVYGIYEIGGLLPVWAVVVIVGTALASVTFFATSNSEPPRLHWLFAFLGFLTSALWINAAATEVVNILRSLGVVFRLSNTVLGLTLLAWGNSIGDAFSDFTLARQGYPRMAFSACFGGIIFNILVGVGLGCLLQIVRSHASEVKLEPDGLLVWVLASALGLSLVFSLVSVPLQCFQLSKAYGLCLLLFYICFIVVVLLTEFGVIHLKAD
Experiment: Inhibition of mitochondrial calcium/sodium antiporter activity (NaCl-induced mitochondrial calcium efflux, calcium green 5N fluorescence)
Type: cell-based
Conditions: digitonin-permeabilized INS-1 cells, 20 mM NaCl
Description: INS-1 rat insulinoma cells (see Example 16) were harvested by trypsinization, washed and resuspended at 10×10^6 cells/ml in assay buffer (250 mM sucrose, 10 mM HEPES, 2.5 mM K2HPO4, 5 mM succinate, pH 7.4) containing 0.007% digitonin, 60 μM CaCl2 and 0.05 μM calcium green 5N (Molecular Probes, Inc., Eugene, Oreg.). After a five-minute calcium loading incubation, ruthenium red (1 μM; Sigma, St. Louis, Mo.) was added to block further calcium uptake by mitochondria. Cell suspensions were dispensed into 96-well plates (100 μl per well, 1×10^6 cells per well) and candidate agents (i.e., candidate mitochondrial calcium/sodium antiporter inhibitors) were added to some sets of triplicate wells at concentrations of 1, 10 or 100 μM, while other sets of wells provided appropriate control conditions (e.g., buffer and vehicle controls). Baseline fluorescence measurements were made using a multiwell plate fluorimeter (F-MAX™, Molecular Devices Corp., Sunnyvale, Calif.; or PolarStar™, BMG Labtechnologies, Inc., Durham, N.C.) according to the manufacturer's instructions. Calcium efflux from mitochondria was then induced by adding NaCl to all wells to achieve a final concentration of 20 mM, and the rate of change in fluorescence in each well was monitored […] for two minutes and quantified using software included with the plate reader.

[1] = Table 3, more preferred compounds, read-out: IC50 ≦ 1 μM
[2] = Table 2, preferred compounds, read-out: IC50 ≦ 10 μM

Row | Structure (SMILES) | IC50 [1] [µM] | IC50 [2] [µM]
1 | COc1ccc(C(=O)NCCSC(CC(C)C)c2cc(Cl)ccc2N)cc1OC (stereo not shown) [Compound 16aa] | ≤ 1 | –
2 | COc1cc(C(=O)NCCSC(c2cc(Cl)ccc2N)C(C)C)cc(OC)c1OC (stereo not shown) [Compound 16ab] | ≤ 1 | –
3 | COc1cc(C(=O)NCCSC(CC(C)C)c2cc(Cl)ccc2N)cc(OC)c1OC (stereo not shown) [Compound 16ac] | ≤ 1 | –
4 | COc1ccc(C(=O)NCCSC(c2cc(F)ccc2N)C2CCCCC2)cc1OC (stereo not shown) [Compound 16ad] | ≤ 1 | –
5 | COc1ccc(C(=O)NCCSC(c2ccccc2N)C2CCCCC2)cc1OC (stereo not shown) [Compound 16ae] | ≤ 1 | –
6 | COc1ccc(CC(=O)NCCSC(c2cc(Cl)ccc2N)c2ccccc2Cl)cc1OC (stereo not shown) [Compound 16b] | ≤ 1 | ≤ 10
7 | Nc1ccc(Cl)cc1C(SCCNC(=O)c1ccc(Cl)cc1Cl)c1ccccc1Cl (stereo not shown) [Compound 16c] | – | ≤ 10
8 | COc1ccc(C(=O)NCCSC(c2cc(Cl)ccc2N)c2ccccc2Cl)cc1OC (stereo not shown) [Compound 16d] | ≤ 1 | ≤ 10
9 | Nc1ccc(Cl)cc1C(SCCNC(=O)c1cccc(Br)c1)c1ccccc1Cl (stereo not shown) [Compound 16e] | ≤ 1 | ≤ 10
10 | COC1CCC(C(=O)NCCSC(c2cc(Cl)ccc2N)c2ccccc2Cl)CC1 (stereo not shown) [Compound 16f] | ≤ 1 | ≤ 10
11 | Nc1ccc(Cl)cc1C(SCCNC(=O)c1ccc([N+](=O)[O-])cc1)c1ccccc1Cl (stereo not shown) [Compound 16g] | ≤ 1 | ≤ 10
12 | Nc1ccc(Cl)cc1C(SCCNC(=O)C1CCC1)c1ccccc1Cl (stereo not shown) [Compound 16h] | ≤ 1 | ≤ 10
13 | Nc1ccc(Cl)cc1C(SCCNC(=O)C1CCCCC1)c1ccccc1Cl (stereo not shown) [Compound 16i] | ≤ 1 | ≤ 10
14 | CC(C)C(=O)NCCSC(c1cc(Cl)ccc1N)c1ccccc1Cl (stereo not shown) [Compound 16j] | ≤ 1 | ≤ 10
15 | Nc1ccc(Cl)cc1C(SCCNC(=O)c1cccnc1)c1ccccc1Cl (stereo not shown) [Compound 16k] | ≤ 1 | ≤ 10
16 | Nc1ccc(Cl)cc1C(SCCNC(=O)COc1ccccc1)c1ccccc1Cl (stereo not shown) [Compound 16l] | ≤ 1 | ≤ 10
17 | Nc1ccc(Cl)cc1C(SCCNC(=O)c1ccccn1)c1ccccc1Cl (stereo not shown) [Compound 16m] | ≤ 1 | ≤ 10
18 | COc1ccc(C(=O)NCCSC(c2cc(Cl)ccc2N)C2CCCCC2)cc1OC (stereo not shown) [Compound 16n] | ≤ 1 | –
19 | COc1cc(C(=O)NCCSC(c2cc(Cl)ccc2N)C2CCCCC2)cc(OC)c1O (stereo not shown) [Compound 16p] | – | ≤ 10
20 | COc1ccccc1C(=O)NCCSC(c1cc(Cl)ccc1N)C1CCCCC1 (stereo not shown) [Compound 16q] | ≤ 1 | –
21 | COc1cccc(C(=O)NCCSC(c2cc(Cl)ccc2N)C2CCCCC2)c1 (stereo not shown) [Compound 16r] | ≤ 1 | –
22 | COc1ccc(C(=O)NCCSC(c2cc(Cl)ccc2N)C2CCCCC2)cc1 (stereo not shown) [Compound 16s] | ≤ 1 | –

Row | Structure (SMILES) | IC50 [1] [µM] | IC50 [2] [µM]
23 | Nc1ccc(Cl)cc1C(SCCNC(=O)c1cccnc1)C1CCCCC1 (stereo not shown) [Compound 16t] | ≤ 1 | –
24 | Nc1ccc(Cl)cc1C(SCCNC(=O)c1ccncc1)C1CCCCC1 (stereo not shown) [Compound 16u] | ≤ 1 | –
25 | Nc1ccc(Cl)cc1C(SCCNC(=O)c1cn[nH]c1)C1CCCCC1 (stereo not shown) [Compound 16v] | – | ≤ 10
26 | Nc1ccc(Cl)cc1C(SCCNC(=O)c1ccc2c(c1)OCO2)C1CCCCC1 (stereo not shown) [Compound 16w] | ≤ 1 | –
27 | CS(=O)(=O)c1ccc(C(=O)NCCSC(c2cc(Cl)ccc2N)C2CCCCC2)cc1 (stereo not shown) [Compound 16x] | ≤ 1 | –
28 | Nc1ccc(Cl)cc1C(SCCNC(=O)c1ccc(S(N)(=O)=O)cc1)C1CCCCC1 (stereo not shown) [Compound 16y] | – | ≤ 10
29 | COc1ccc(C(=O)NCCSC(c2cc(Cl)ccc2N)C(C)C)cc1OC (stereo not shown) [Compound 16z] | ≤ 1 | –
30 | Nc1ccc(Cl)cc1C(SCCNC(=O)Nc1cccc(F)c1)c1ccccc1Cl (stereo not shown) [Compound 17a] | – | ≤ 10
31 | Nc1ccc(Cl)cc1C(SCCNC(=O)Nc1ccccc1OC(F)(F)F)c1ccccc1Cl (stereo not shown) [Compound 17b] | ≤ 1 | ≤ 10
32 | Nc1ccc(Cl)cc1C(SCCNC(=O)Nc1cc(F)ccc1F)c1ccccc1Cl (stereo not shown) [Compound 17d] | – | ≤ 10
33 | Nc1ccc(Cl)cc1C(SCCNC(=O)Nc1cccc(Cl)c1Cl)c1ccccc1Cl (stereo not shown) [Compound 17e] | – | ≤ 10
34 | COc1ccc(NC(=O)NCCSC(c2cc(Cl)ccc2N)c2ccccc2Cl)c(OC)c1 (stereo not shown) [Compound 17f] | ≤ 1 | ≤ 10
35 | COc1ccc(NC(=O)NCCSC(c2cc(Cl)ccc2N)C2CCCCC2)c(OC)c1 (stereo not shown) [Compound 17g] | ≤ 1 | –
36 | COc1cc(NC(=O)NCCSC(c2cc(Cl)ccc2N)C2CCCCC2)cc(OC)c1OC (stereo not shown) [Compound 17h] | ≤ 1 | –
37 | COc1cc(NC(=S)NCCSC(c2cc(Cl)ccc2N)C2CCCCC2)cc(OC)c1OC (stereo not shown) [Compound 17i] | ≤ 1 | –
38 | COc1ccc(NC(=O)NCCSC(c2cc(Cl)ccc2N)C2CCCCC2)cc1OC (stereo not shown) [Compound 17j] | ≤ 1 | –
39 | COc1ccc(NC(=S)NCCSC(c2cc(Cl)ccc2N)C2CCCCC2)c(OC)c1 (stereo not shown) [Compound 17k] | ≤ 1 | –
40 | Nc1ccc(Cl)cc1C(SCCNS(=O)(=O)c1ccccc1)c1ccccc1Cl (stereo not shown) [Compound 18b] | ≤ 1 | ≤ 10
41 | Nc1ccc(Cl)cc1C(SCCNS(=O)(=O)c1ccccc1[N+](=O)[O-])c1ccccc1Cl (stereo not shown) [Compound 18c] | ≤ 1 | ≤ 10
42 | Nc1ccc(Cl)cc1C(SCCNS(=O)(=O)c1ccc(OC(F)(F)F)cc1)c1ccccc1Cl (stereo not shown) [Compound 18d] | – | ≤ 10
43 | CS(=O)(=O)NCCSC(c1cc(Cl)ccc1N)c1ccccc1Cl (stereo not shown) [Compound 18e] | ≤ 1 | ≤ 10
44 | COc1ccc(S(=O)(=O)NCCSC(c2cc(Cl)ccc2N)C2CCCCC2)cc1OC (stereo not shown) [Compound 18f] | ≤ 1 | –

Row | Structure (SMILES) | IC50 [1] [µM] | IC50 [2] [µM]
45 | COc1ccc(S(=O)(=O)NCCSC(c2cc(F)ccc2N)C2CCCCC2)cc1OC (stereo not shown) [Compound 18g] | ≤ 1 | –
46 | COC(=O)CSCC(c1cc(Cl)ccc1N)c1ccccc1Cl (stereo not shown) [Compound 20a] | – | ≤ 10
47 | COC(=O)CSCC(c1cc(Cl)ccc1N)c1ccccc1F (stereo not shown) [Compound 20b] | ≤ 1 | ≤ 10
48 | COC(=O)CSCC(c1cc(Br)ccc1N)c1ccccc1F (stereo not shown) [Compound 20c] | ≤ 1 | ≤ 10
49 | COC(=O)CSCC(c1ccccc1)c1cc(Cl)ccc1N (stereo not shown) [Compound 20d] | ≤ 1 | ≤ 10
50 | NC(=O)CSCC(c1cc(Cl)ccc1N)c1ccccc1Cl (stereo not shown) [Compound 21a] | – | ≤ 10
51 | NC(=O)CSCC(c1ccccc1)c1cc(Cl)ccc1N (stereo not shown) [Compound 21d] | ≤ 1 | ≤ 10
52 | CNC(=O)CSCC(c1cc(Cl)ccc1N)c1ccccc1Cl (stereo not shown) [Compound 21e] | ≤ 1 | ≤ 10
53 | CNC(=O)CSCC(c1cc(Cl)ccc1N)c1ccccc1F (stereo not shown) [Compound 21f] | ≤ 1 | ≤ 10
54 | CNC(=O)CSCC(c1cc(Br)ccc1N)c1ccccc1F (stereo not shown) [Compound 21g] | – | ≤ 10
55 | CNC(=O)CSCC(c1ccccc1)c1cc(Cl)ccc1N (stereo not shown) [Compound 21h] | ≤ 1 | ≤ 10
56 | Cc1noc(CSCC(c2cc(Cl)ccc2N)c2ccccc2Cl)n1 (stereo not shown) [Compound 22a] | ≤ 1 | ≤ 10
57 | Cc1noc(CSCC(c2cc(Cl)ccc2N)c2ccccc2F)n1 (stereo not shown) [Compound 22b] | ≤ 1 | ≤ 10
58 | Cc1noc(CSCC(c2cc(Br)ccc2N)c2ccccc2F)n1 (stereo not shown) [Compound 22c] | – | ≤ 10
59 | Cc1noc(CSCC(c2ccccc2)c2cc(Cl)ccc2N)n1 (stereo not shown) [Compound 22d] | ≤ 1 | ≤ 10
60 | COC(=O)C(c1cccc(Cl)c1)c1ccccc1[N+](=O)[O-] (stereo not shown) [Compound 25a] | – | ≤ 10
61 | CCOC(=O)C(c1ccccc1C)c1ccccc1[N+](=O)[O-] (stereo not shown) [Compound 25b] | ≤ 1 | ≤ 10
62 | COC(=O)C(c1ccccc1)c1ccccc1[N+](=O)[O-] (stereo not shown) [Compound 25c] | – | ≤ 10
63 | COC(=O)C(c1ccccc1[N+](=O)[O-])c1cccc2ccccc12 (stereo not shown) [Compound 25d] | ≤ 1 | ≤ 10
64 | CNC(=O)C(c1cccc(Cl)c1)c1ccccc1[N+](=O)[O-] (stereo not shown) [Compound 26a] | – | ≤ 10
65 | O=C(NCCc1ccccc1)C(c1cccc(Cl)c1)c1ccccc1[N+](=O)[O-] (stereo not shown) [Compound 26b] | ≤ 1 | ≤ 10

From US6958352B2, “Compounds for inhibiting insulin secretion and methods related thereto” (SmithKline Beecham Corporation, priority 2002, dated 2005)
